From patent US20260284018A1, “DUAL INHIBITORS OF DYRK1A AND 5-HT2 FOR TREATING A BRAIN DISORDER” (THE REGENTS OF THE UNIVERSITY OF CALIFORNIA, priority 2023, published 2026)

Tested on: phospho-Tau
Test: Phospho-Tau assay using cultured rat cortical neurons (okadaic acid insult)
Format: cell-based
Conditions: pretreatment, 30 nM okadaic acid, rat cortical cultures, FIG. 14 and 15B
Description: Phospho-Tau Assay Using Cultured Rat Cortical Neurons. Primary cortical cell cultures were prepared as described previously.^2 Briefly, pregnant Sprague Dawley dams were euthanized at embryonic day 18 (E18), and the cortices of the pups were harvested. Cells were plated on poly-d-lysine coated plates at 15,000 cells per well. Cultures were maintained at 37° C. under an atmosphere containing 5% CO2. Plating media consisted of 10% heat-inactivated fetal bovine serum (FBS; Fisher) 1% penicillin-streptomycin (Fisher), and 0.5 mM glutamine (Life Technologies) in Neurobasal (Fisher). After 16-24 h, media was exchanged for replacement media consisting of IX B27 supplement (Fisher), 1% penicillin-streptomycin, 0.5 mM glutamine, and 12.5 μM glutamate in Neurobasal. On DIV6 and DIV13, 50% of media was removed, and feeding media containing 1×B27 supplement, 1% penicillin-streptomycin, 0.5 mM glutamine in Neurobasal was added with an additional 20% volume added to account for evaporation. On DIV14, the volume of each well was adjusted to 180 μL. Next, 1000× solutions of compounds in DMSO were diluted 1:100 into Neurobasal and 20 μL of the resulting solutions was added to the appropriate wells (total dilution=1:1000, 0.1% DMSO). For wells that were not treated with compounds, DMSO was diluted 1:100 into Neurobasal and 20 μL of the resulting solution was added to the appropriate wells. All treatments were randomized. After 24 h, 20 μL was removed from each well. […] After 1 h, neurons were fixed by removing 80% of the media and replacing it with a volume of 4% aqueous paraformaldehyde (ThermoFisher) equal to 50% of the working volume of the well. Then, the cells were incubated at room temperature for 15 min before the fixative was aspirated and each well was washed twice with DPBS. Cells were permeabilized using 0.2% Triton X-100 (ThermoFisher) in DPBS for 15 min at room temperature without shaking. Plates were blocked with blocking buffer (2% bovine serum albumin and […] in DPBS) overnight at 4° C. Then, plates were incubated overnight at 4° C. with gentle shaking in antibody dilution buffer (ADB) (1% bovine serum albumin and […] in DBPS) containing a chicken anti-MAP2 antibody (1:10,000; EnCor, CPCA-MAP2), guinea pig anti-Tau antibody (1:1000; Synaptic Systems), mouse anti-phosphoTau (Ser202/Thr205) antibody (1:1000; Invitrogen), and rabbit anti-phosphoTau (Ser396) antibody (1:1000; Invitrogen). Plates were washed twice with DPBS and once with ADB before being incubated for 1 h at room temperature in ADB containing an anti-chicken IgY secondary antibody conjugated to Alexa Fluor™ Plus 800 (1:1000; Invitrogen), an anti-mouse IgG secondary antibody conjugated to Alexa Fluor™ Plus 680 (1:1000; Invitrogen), an anti-guinea pig IgG secondary antibody conjugated to Alexa Fluor™ 596 (1:1000; Invitrogen), and an anti-rabbit IgG secondary antibody conjugated to Alexa Fluor™ Plus 488 (1:1000; Invitrogen). Plates were washed three times with DBPS, and after the final wash, 100 μL of DPBS was added per well before imaging on a CellInsight™ CX7 High Content Analysis imager at 20× with 12 ROIs taken per well with no bias to location and no overlap of the ROIs. Images were analyzed using Cellnomics Scan software (version 6.6.2). The compartmental analysis assay was used to measure the average intensity of each channel per field and determine the reported intensity ratios.

SMILES: CN(C)CCn1ccc2ccccc21 [isoDMT, reference compound]
- hyperphosphorylation of Tau (pTau accumulation) induced by okadaic acid: does not
